Data reported in patent US12410262B2, “Peptide conjugates of cytotoxins as therapeutics” (Cybrexa 2, Inc., priority 2019, dated 2025).
Read-outs that look alike come from different tables or passages of the source. Residues, ends and D or L forms follow the SMILES beside them. *: point of attachment. X2 = CC[C@@]1(O)C(=O)OCc2c1cc1n(c2=O)Cc2c-1nc1cc(F)c(C)c3c1c2[C@@H](NC(=O)O[C@H](C)[C@@H](C)S*)CC3; X4 = CC[C@@]1(O)C(=O)OCc2c1cc1n(c2=O)Cc2c-1nc1cc(F)c(C)c3c1c2[C@@H](NC(=O)O[C@@H](C)[C@H](C)S*)CC3; X1 = CC[C@@]1(O)C(=O)OCc2c1cc1n(c2=O)Cc2c-1nc1cc(F)c(C)c3c1c2[C@@H](NC(=O)O[C@H](C)[C@H](C)S*)CC3; X6 = CC[C@@]1(O)C(=O)OCc2c1cc1n(c2=O)Cc2c-1nc1cc(F)c(C)c3c1c2[C@@H](NC(=O)OCC1(S*)CCC1)CC3

Experiments:
Assay in all cases: cells
DLD-1 WT cells = format: cell-based
Experimental: (§1) Cells were plated in 96 well black walled-clear bottom plates (Griener), DLD-1 WT cells at 2500 cells per well, FaDu, and HeLa cells at 5000 cells per well, and HCT116 at 3000 cells per well, in growth media containing 10% FBS. Cells were allowed to adhere at room temperature for 60 minutes before returning to a 37 C, 5% CO2 incubator. After 24 hours, media was removed and replaced with fresh growth media containing various drug concentrations. Each drug concentration was added in triplicate. Non-drug treated controls contained growth media only. Cells were returned to the incubator. Ninety-six hours after addition of drug, cells were fixed with 4% paraformaldehyde for 20 minutes and stained with Hoechst at 1 ug/mL. The plates were imaged on a Cytation 5 auto imager (BioTek) and cells were counted using CellProfiler (http://cellprofiler.org). The percent cell growth delay was calculated and data plotted using GraphPad Prism

FaDu = format: cell-based
Experimental: as §1

HeLa cells = format: cell-based
Experimental: as §1

HCT116 = format: cell-based, human
In short: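 DLD-1 WT (2500/well), FaDu and HeLa (5000/well) and HCT116 (3000/well) were grown in 10% FBS media and dosed in triplicate 24 h after plating. After 96 h of drug exposure at 37 °C, cells were fixed, Hoechst-stained and counted by imaging; percent growth delay was calculated versus untreated controls.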

Row | Structure (SMILES) | IC50 (DLD-1 WT cells; 96 h) | IC50 (FaDu; 96 h) | IC50 (HeLa cells; 96 h) | IC50 (HCT116; 96 h) | other results
1 | CC[C@H](C)[C@H](NC(=O)[C@@H]1CCCN1C(=O)[C@H](CC(N)=O)NC(=O)[C@H](CCC(N)=O)NC(=O)[C@H](CCC(=O)O)NC(=O)[C@H](C)N)C(=O)N[C@@H](Cc1ccc(O)cc1)C(=O)N[C@@H](Cc1c[nH]c2ccccc12)C(=O)N[C@@H](C)C(=O)N[C@@H](CCCNC(=N)N)C(=O)N[C@@H](Cc1ccc(O)cc1)C(=O)N[C@@H](C)C(=O)N[C@@H](CC(=O)O)C(=O)N[C@@H](Cc1c[nH]c2ccccc12)C(=O)N[C@@H](CC(C)C)C(=O)N[C@@H](Cc1ccccc1)C(=O)N[C@H](C(=O)N[C@H](C(=O)N1CCC[C@H]1C(=O)N[C@@H](CC(C)C)C(=O)N[C@@H](CC(C)C)C(=O)N[C@@H](CC(C)C)C(=O)N[C@@H](CC(C)C)C(=O)N[C@@H](CC(=O)O)C(=O)N[C@@H](CC(C)C)C(=O)N[C@@H](C)C(=O)N[C@@H](CC(C)C)C(=O)N[C@@H](CC(C)C)C(=O)N[C@H](C(=O)N[C@@H](CC(=O)O)C(=O)N[C@@H](C)C(=O)N[C@@H](CC(=O)O)C(=O)N[C@@H](CCC(=O)O)C(=O)N[C@@H](CSS[C@@H](C)[C@H](C)OC(=O)N[C@H]1CCc2c(C)c(F)cc3nc4c(c1c23)Cn1c-4cc2c(c1=O)COC(=O)[C@]2(O)CC)C(=O)NCC(=O)O)C(C)C)[C@@H](C)O)[C@@H](C)O [Compound 5] (H-AEQNPIYWARYADWLFTTPLLLLDLALLVDADEC(X4)G-OH; N-terminus and C-terminus assumed) | 0.83 nM | 0.06 nM | 0.07 nM | 0.12 nM | –
2 | CC[C@H](C)[C@H](NC(=O)[C@@H]1CCCN1C(=O)[C@H](CC(N)=O)NC(=O)[C@H](CCC(N)=O)NC(=O)[C@H](CCC(=O)O)NC(=O)[C@H](C)N)C(=O)N[C@@H](Cc1ccc(O)cc1)C(=O)N[C@@H](Cc1c[nH]c2ccccc12)C(=O)N[C@@H](C)C(=O)N[C@@H](CCCNC(=N)N)C(=O)N[C@@H](Cc1ccc(O)cc1)C(=O)N[C@@H](C)C(=O)N[C@@H](CC(=O)O)C(=O)N[C@@H](Cc1c[nH]c2ccccc12)C(=O)N[C@@H](CC(C)C)C(=O)N[C@@H](Cc1ccccc1)C(=O)N[C@H](C(=O)N[C@H](C(=O)N1CCC[C@H]1C(=O)N[C@@H](CC(C)C)C(=O)N[C@@H](CC(C)C)C(=O)N[C@@H](CC(C)C)C(=O)N[C@@H](CC(C)C)C(=O)N[C@@H](CC(=O)O)C(=O)N[C@@H](CC(C)C)C(=O)N[C@@H](C)C(=O)N[C@@H](CC(C)C)C(=O)N[C@@H](CC(C)C)C(=O)N[C@H](C(=O)N[C@@H](CC(=O)O)C(=O)N[C@@H](C)C(=O)N[C@@H](CC(=O)O)C(=O)N[C@@H](CCC(=O)O)C(=O)N[C@@H](CSSC1(COC(=O)N[C@H]2CCc3c(C)c(F)cc4nc5c(c2c34)Cn2c-5cc3c(c2=O)COC(=O)[C@]3(O)CC)CCC1)C(=O)NCC(=O)O)C(C)C)[C@@H](C)O)[C@@H](C)O [Compound 3] (H-AEQNPIYWARYADWLFTTPLLLLDLALLVDADEC(X6)G-OH; N-terminus and C-terminus assumed) | – | – | – | – | IC50 (FaDu; FaDu cells, 96 h after addition of drug, read-out: FaDu (IC50)): 5.9 nM; IC50 (HeLa cells; HeLa cells, 96 h after addition of drug, read-out: HeLa (IC50)): 7.6 nM; IC50 (HCT116; HCT116 cells, 96 h after addition of drug, read-out: HCT116 (IC50)): 8.33 nM
3 | CC[C@@]1(O)C(=O)OCc2c1cc1n(c2=O)Cc2c-1nc1cc(F)c(C)c3c1c2[C@@H](N)CC3 [R^8H-5, (10S,23S)-23-amino-10-ethyl-18-fluoro-10-hydroxy-19-methyl-8-oxa-4,15-diazahexacyclo[14.7.1.02,14.04,13.06,11.020,24]tetracosa-1,6(11),12,14,16(24),17,19-heptaene-5,9-dione; methanesulfonic acid, reference compound] | – | – | – | – | IC50 (DLD-1 WT cells; Homo sapiens, DLD-1 WT cells, 96 h after addition of drug, IC = incomplete curve, read-out: DLD-1 (IC50)): 0.13 nM; IC50 (FaDu; Homo sapiens, FaDu cells, 96 h after addition of drug, read-out: FaDu (IC50)): 0.04 nM; IC50 (HeLa cells; Homo sapiens, HeLa cells, 96 h after addition of drug, read-out: HeLa (IC50)): 0.12 nM; IC50 (HCT116; Homo sapiens, HCT-116, HCT116 cells, 96 h after addition of drug, read-out: HCT116 (IC50)): 0.05 nM
4 | CC[C@H](C)[C@H](NC(=O)[C@@H]1CCCN1C(=O)[C@H](CC(N)=O)NC(=O)[C@H](CCC(N)=O)NC(=O)[C@H](CCC(=O)O)NC(=O)[C@H](C)N)C(=O)N[C@@H](Cc1ccc(O)cc1)C(=O)N[C@@H](Cc1c[nH]c2ccccc12)C(=O)N[C@@H](C)C(=O)N[C@@H](CCCNC(=N)N)C(=O)N[C@@H](Cc1ccc(O)cc1)C(=O)N[C@@H](C)C(=O)N[C@@H](CC(=O)O)C(=O)N[C@@H](Cc1c[nH]c2ccccc12)C(=O)N[C@@H](CC(C)C)C(=O)N[C@@H](Cc1ccccc1)C(=O)N[C@H](C(=O)N[C@H](C(=O)N1CCC[C@H]1C(=O)N[C@@H](CC(C)C)C(=O)N[C@@H](CC(C)C)C(=O)N[C@@H](CC(C)C)C(=O)N[C@@H](CC(C)C)C(=O)N[C@@H](CC(=O)O)C(=O)N[C@@H](CC(C)C)C(=O)N[C@@H](C)C(=O)N[C@@H](CC(C)C)C(=O)N[C@@H](CC(C)C)C(=O)N[C@H](C(=O)N[C@@H](CC(=O)O)C(=O)N[C@@H](C)C(=O)N[C@@H](CC(=O)O)C(=O)N[C@@H](CCC(=O)O)C(=O)N[C@@H](CSS[C@H](C)[C@@H](C)OC(=O)N[C@H]1CCc2c(C)c(F)cc3nc4c(c1c23)Cn1c-4cc2c(c1=O)COC(=O)[C@]2(O)CC)C(=O)NCC(=O)O)C(C)C)[C@@H](C)O)[C@@H](C)O [Compound 4] (H-AEQNPIYWARYADWLFTTPLLLLDLALLVDADEC(X2)G-OH; N-terminus and C-terminus assumed) | 0.8 nM | 0.06 nM | 0.07 nM | 0.1 nM | –
5 | CC[C@H](C)[C@H](NC(=O)[C@@H]1CCCN1C(=O)[C@H](CC(N)=O)NC(=O)[C@H](CCC(N)=O)NC(=O)[C@H](CCC(=O)O)NC(=O)[C@H](C)N)C(=O)N[C@@H](Cc1ccc(O)cc1)C(=O)N[C@@H](Cc1c[nH]c2ccccc12)C(=O)N[C@@H](C)C(=O)N[C@@H](CCCNC(=N)N)C(=O)N[C@@H](Cc1ccc(O)cc1)C(=O)N[C@@H](C)C(=O)N[C@@H](CC(=O)O)C(=O)N[C@@H](Cc1c[nH]c2ccccc12)C(=O)N[C@@H](CC(C)C)C(=O)N[C@@H](Cc1ccccc1)C(=O)N[C@H](C(=O)N[C@H](C(=O)N1CCC[C@H]1C(=O)N[C@@H](CC(C)C)C(=O)N[C@@H](CC(C)C)C(=O)N[C@@H](CC(C)C)C(=O)N[C@@H](CC(C)C)C(=O)N[C@@H](CC(=O)O)C(=O)N[C@@H](CC(C)C)C(=O)N[C@@H](C)C(=O)N[C@@H](CC(C)C)C(=O)N[C@@H](CC(C)C)C(=O)N[C@H](C(=O)N[C@@H](CC(=O)O)C(=O)N[C@@H](C)C(=O)N[C@@H](CC(=O)O)C(=O)N[C@@H](CCC(=O)O)C(=O)N[C@@H](CSS[C@@H](C)[C@@H](C)OC(=O)N[C@H]1CCc2c(C)c(F)cc3nc4c(c1c23)Cn1c-4cc2c(c1=O)COC(=O)[C@]2(O)CC)C(=O)NCC(=O)O)C(C)C)[C@@H](C)O)[C@@H](C)O [Compound 6] (H-AEQNPIYWARYADWLFTTPLLLLDLALLVDADEC(X1)G-OH; N-terminus and C-terminus assumed) | 13.9 nM | 0.76 nM | 0.62 nM | 1 nM | –
